# According to patent US20180237441A1, “Chemical Compounds” (GlaxoSmithKline Intellectual Property (No.2) Limited, priority 2015, published 2018):
# Biological target: T1, PERK (Homo sapiens, UniProt Q9NZJ5)
# T1 sequence (Q9NZJ5 30-1116): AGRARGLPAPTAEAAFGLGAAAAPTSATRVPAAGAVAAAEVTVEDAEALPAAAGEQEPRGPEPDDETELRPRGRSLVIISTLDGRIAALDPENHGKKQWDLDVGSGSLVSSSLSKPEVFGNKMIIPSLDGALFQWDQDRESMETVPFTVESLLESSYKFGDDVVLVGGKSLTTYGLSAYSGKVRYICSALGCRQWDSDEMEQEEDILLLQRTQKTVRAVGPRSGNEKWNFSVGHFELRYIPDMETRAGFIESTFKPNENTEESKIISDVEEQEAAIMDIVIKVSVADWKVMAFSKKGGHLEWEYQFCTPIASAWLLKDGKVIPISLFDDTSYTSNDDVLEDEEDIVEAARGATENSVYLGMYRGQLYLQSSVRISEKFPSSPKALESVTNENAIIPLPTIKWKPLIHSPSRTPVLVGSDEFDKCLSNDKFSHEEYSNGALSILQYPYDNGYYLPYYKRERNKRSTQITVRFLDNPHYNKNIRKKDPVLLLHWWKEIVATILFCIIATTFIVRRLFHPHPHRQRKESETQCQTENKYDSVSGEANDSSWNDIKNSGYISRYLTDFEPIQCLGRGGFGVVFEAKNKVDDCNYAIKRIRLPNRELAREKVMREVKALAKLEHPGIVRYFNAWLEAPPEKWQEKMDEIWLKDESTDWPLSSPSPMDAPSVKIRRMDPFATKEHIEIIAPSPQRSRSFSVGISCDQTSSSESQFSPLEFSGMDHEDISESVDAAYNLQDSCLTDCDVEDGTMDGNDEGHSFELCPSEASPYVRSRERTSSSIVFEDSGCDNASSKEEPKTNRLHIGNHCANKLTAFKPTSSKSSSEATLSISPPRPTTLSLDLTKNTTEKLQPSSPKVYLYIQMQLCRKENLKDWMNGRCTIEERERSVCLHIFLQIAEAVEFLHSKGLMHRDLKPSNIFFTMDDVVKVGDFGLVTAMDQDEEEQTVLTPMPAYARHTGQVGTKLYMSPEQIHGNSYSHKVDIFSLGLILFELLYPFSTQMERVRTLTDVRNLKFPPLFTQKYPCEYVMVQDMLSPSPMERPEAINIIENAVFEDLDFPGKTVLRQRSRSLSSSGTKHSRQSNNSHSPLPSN
# Assay: PERK enzyme assay (HTRF)
# Assay type: biochemical
# Conditions: 500 μM ATP; at least one experimental run; read-out: PERK Enzyme (500 μM ATP) IC50
# Experimental: Compounds of the invention were assayed for PERK enzyme inhibitory activity with modifications to previously reported conditions (Axten et al. J. Med. Chem., 2012, 55, 7193-7207). Briefly, various concentrations of compounds (maximum 1% DMSO) were dispensed into 384-well plates containing GST-PERK enzyme. After 30-60 minutes of compound pre-incubation, ATP and biotin-eIF2α were added and after 60 minutes the reaction was quenched. After 2 hrs, a fluorescence plate reader was used to measure inhibition and IC50s were calculated.
# Enzyme Assay Protocol for PKR-Like Endoplasmic Reticulum Kinase (PERK)—HTRF —% Inhibition
# Assay Buffer contains HEPES (pH7.5) 10 mM, CHAPS 2 mM, MgCl2 5 mM and DTT 1 mM in water
# Detection Buffer contains HEPES (pH7.5) 10 mM and CHAPS 2 mM in water Assay Plate Preparation:
# 1. Enzyme Preparation: • 4× Enzyme solution was prepared immediately prior to adding to compound plates. • 3 nM of GST-PERK in Assay buffer. Final [PERK] in 10 μl assay volume=0.75 nM
# 2. Substrate Preparation: • 4× Substrate solution was prepared immediately prior to adding to compound plates. • 4× Substrate solution in assay buffer 2000 μM ATP and 160 nM Biotin-eIF2α • Final [ATP] in 10 μl assay volume=500 μM • Final [biotin-eIF2a] in 10 μl assay volume=40 nM.
# 3. Quench/Detection Solution: • 16 nM eIF2 Phospho-Antibody • 16 nM Eu anti-Rabbit IgG • 160 nM Streptavidin-APC • 60 mM EDTA • Final concentration in 10 μL assay volume: 4 nM eIF2 Phospho-Antibody, 4 nM Eu anti-Rabbit IgG 40 nM Streptavidin-APC
# The activity of compounds in the PERK enzyme assay was determined at PERK Enzyme (500 μM ATP) IC50 (nM).
row,SMILES,IC50 [nM]
1,"Cc1nc(N)c2c(-c3ccc(N4CC(c5ccc(F)cc5F)N(C)C4=O)cc3F)cn(C)c2n1 (single isomer, unassigned) [Example 66, 1-(4-(4-amino-2,7-dimethyl-7H-pyrrolo[2,3-d]pyrimidin-5-yl)-3-fluorophenyl)-4-(2,4-difluorophenyl)-3-methylimidazolidin-2-one]",86.9
2,"CC(C)n1cc(-c2ccc(N3CC(c4ccc(F)cc4F)N(C)C3=O)cc2F)c2c(N)ncnc21 (stereo not shown) [Example 92, 1-(4-(4-amino-7-isopropyl-7H-pyrrolo[2,3-d]pyrimidin-5-yl)-3-fluorophenyl)-4-(2,4-difluorophenyl)-3-methylimidazolidin-2-one]",351

# Same assay, conditions: PERK Enzyme (500 μM ATP) IC50; at least one experimental run; read-out: PERK Activity
row,IC50 [nM],SMILES
1,< 100,"CN1C(=O)N(c2ccc(-c3cn(C4CC4)c4ncnc(N)c34)c(F)c2)CC1c1ccc(Cl)cc1 (stereo not shown) [Example 167, 1-(4-(4-amino-7-cyclopropyl-7H-pyrrolo[2,3-d]pyrimidin-5-yl)-3-fluorophenyl)-4-(4-chlorophenyl)-3-methylimidazolidin-2-one]"
2,< 100,"CN1C(=O)N(c2ccc(-c3cn(C)c4ncnc(N)c34)c(F)c2)CC1c1cc(F)c(F)cc1F (single isomer, unassigned) [Example 158, 1-(4-(4-amino-7-methyl-7H-pyrrolo[2,3-d]pyrimidin-5-yl)-3-fluorophenyl)-3-methyl-4-(2,4,5-trifluorophenyl)imidazolidin-2-one]"
3,< 100,"CN1C(=O)N(c2ccc(-c3cn(C)c4ncnc(N)c34)c(F)c2)CC1c1ccc(F)c(Cl)c1 (stereo not shown) [Example 131, 1-(4-(4-amino-7-methyl-7H-pyrrolo[2,3-d]pyrimidin-5-yl)-3-fluorophenyl)-4-(3-chloro-4-fluorophenyl)-3-methylimidazolidin-2-one]"
4,< 100,"CN1C(=O)N(c2ccc(-c3cn(C4CC4)c4ncnc(N)c34)c(F)c2)CC1c1cc(F)c(F)cc1F (single isomer, unassigned) [Example 161, 1-(4-(4-amino-7-cyclopropyl-7H-pyrrolo[2,3-d]pyrimidin-5-yl)-3-fluorophenyl)-3-methyl-4-(2,4,5-trifluorophenyl)imidazolidin-2-one]"

# Continued, compound first:
row,SMILES,IC50 [nM]
1,"Cn1cc(-c2ccc(N3CC(c4cccc(Cl)c4F)CC3=O)cc2F)c2c(N)ncnc21 (stereo not shown) [Example 35, 1-(4-(4-amino-7-methyl-7H-pyrrolo[2,3-d]pyrimidin-5-yl)-3-fluorophenyl)-4-(3-chloro-2-fluorophenyl)pyrrolidin-2-one]",100 to 1000
2,"CN1C(=O)N(c2ccc(-c3cn(C)c4ncnc(N)c34)c(F)c2)CC1c1cc(F)ccc1F (stereo not shown) [Example 18, 1-(4-(4-amino-7-methyl-7H-pyrrolo[2,3-d]pyrimidin-5-yl)-3-fluorophenyl)-4-(2,5-difluorophenyl)-3-methylimidazolidin-2-one]",100 to 1000
3,"Cc1nc(N)c2c(-c3ccc(N4CC(c5ccc(F)cc5F)N(C)C4=O)cc3F)cn(C)c2n1 (single isomer, unassigned) [Example 66, 1-(4-(4-amino-2,7-dimethyl-7H-pyrrolo[2,3-d]pyrimidin-5-yl)-3-fluorophenyl)-4-(2,4-difluorophenyl)-3-methylimidazolidin-2-one]",< 100
4,"CCN1C(=O)N(c2ccc(-c3cn(C)c4ncnc(N)c34)c(F)c2)CC1c1cc(F)ccc1F (racemic) [Example 1, 1-(4-(4-amino-7-methyl-7H-pyrrolo[2,3-d]pyrimidin-5-yl)-3-fluorophenyl)-4-(2,5-difluorophenyl)-3-ethylimidazolidin-2-one]",100 to 1000
5,"CCN1C(=O)N(c2ccc(-c3cn(C)c4ncnc(N)c34)c(F)c2)CC1c1ccc(F)c(F)c1 (stereo not shown) [Example 97, 1-(4-(4-amino-7-methyl-7H-pyrrolo[2,3-d]pyrimidin-5-yl)-3-fluorophenyl)-4-(3,4-difluorophenyl)-3-ethylimidazolidin-2-one]",< 100
6,"CC(C)n1cc(-c2ccc(N3CC(c4cc(F)ccc4F)N(C)C3=O)cc2F)c2c(N)ncnc21 (single isomer, unassigned) [Example 86, 1-(4-(4-amino-7-isopropyl-7H-pyrrolo[2,3-d]pyrimidin-5-yl)-3-fluorophenyl)-4-(2,5-difluorophenyl)-3-methylimidazolidin-2-one]",100 to 1000
7,"CC(C)n1cc(-c2ccc(N3CC(c4ccc(F)cc4F)N(C)C3=O)cc2F)c2c(N)ncnc21 (stereo not shown) [Example 92, 1-(4-(4-amino-7-isopropyl-7H-pyrrolo[2,3-d]pyrimidin-5-yl)-3-fluorophenyl)-4-(2,4-difluorophenyl)-3-methylimidazolidin-2-one]",100 to 1000
